Assay results as given in patent US20220306659A1, “COMPOUND INHIBITING AND INDUCING DEGRADATION OF EGFR AND ALK” (BEIJING TIDE PHARMACEUTICAL CO., LTD., priority 2019, published 2022).

Tests used:
[1] = target: Ba/F3(EGFR^Del19/T790M/C797S) cells (Homo sapiens, UniProt P00533, DEL746-750/T790M/C797S, cells depend on it); assay: Assay of activity on Ba/F3 cells (CTG, 72 h); assay type: cell-based; conditions: read-out: IC50 (nM) Ba/F3 (EGFR^Del19/T790M/C797S)
Method: (§1) (2) A compound stock solution was prepared, and then diluted 3× to obtain a compound dilution. 30 nL of the compound dilution was added to a 384-well plate by Echo (Labcyte, Echo550). The cells were incubated in an incubator at 37° C. and 5% CO2 for 72 h.
(§2) The percent inhibition rate (% inhibition) was calculated by the following formula
(§3) LUMcmpd: Luminescence value of assay compound.
(§4) LUMpositive: Average LUM value of positive drug at a concentration of 10 μM.
(§5) LUMvehicle. Average LUM value of negative control group without drug treatment.
(§6) The nonlinear regression curve (dose response-variable slope) between the value of inhibition rate (%) and the logarithm of compound concentration was fitted with graphpad prism 8.0, the effect dose curve of compound was drawn, and the IC50 value was calculated.
(§7) Y=Bottom+(Top−Bottom)/(1+1^((LogIC50−X)*HillSlope))
(§8) X-axis: logarithm of compound concentration; Y axis: inhibition rate ([…]).

[2] = target: Ba/F3(EGFR^L858R/T790M/C797S) cells (Homo sapiens, UniProt P00533, T790M/C797S/L858R, cells depend on it); assay: Assay of activity on Ba/F3 cells (CTG, 72 h); assay type: cell-based; conditions: read-out: IC50 (nM) Ba/F3 (EGFR^L858R/T790M/C797S)
Sequence of Ba/F3(EGFR^L858R/T790M/C797S) cells (P00533 whole entry T790M/C797S/L858R): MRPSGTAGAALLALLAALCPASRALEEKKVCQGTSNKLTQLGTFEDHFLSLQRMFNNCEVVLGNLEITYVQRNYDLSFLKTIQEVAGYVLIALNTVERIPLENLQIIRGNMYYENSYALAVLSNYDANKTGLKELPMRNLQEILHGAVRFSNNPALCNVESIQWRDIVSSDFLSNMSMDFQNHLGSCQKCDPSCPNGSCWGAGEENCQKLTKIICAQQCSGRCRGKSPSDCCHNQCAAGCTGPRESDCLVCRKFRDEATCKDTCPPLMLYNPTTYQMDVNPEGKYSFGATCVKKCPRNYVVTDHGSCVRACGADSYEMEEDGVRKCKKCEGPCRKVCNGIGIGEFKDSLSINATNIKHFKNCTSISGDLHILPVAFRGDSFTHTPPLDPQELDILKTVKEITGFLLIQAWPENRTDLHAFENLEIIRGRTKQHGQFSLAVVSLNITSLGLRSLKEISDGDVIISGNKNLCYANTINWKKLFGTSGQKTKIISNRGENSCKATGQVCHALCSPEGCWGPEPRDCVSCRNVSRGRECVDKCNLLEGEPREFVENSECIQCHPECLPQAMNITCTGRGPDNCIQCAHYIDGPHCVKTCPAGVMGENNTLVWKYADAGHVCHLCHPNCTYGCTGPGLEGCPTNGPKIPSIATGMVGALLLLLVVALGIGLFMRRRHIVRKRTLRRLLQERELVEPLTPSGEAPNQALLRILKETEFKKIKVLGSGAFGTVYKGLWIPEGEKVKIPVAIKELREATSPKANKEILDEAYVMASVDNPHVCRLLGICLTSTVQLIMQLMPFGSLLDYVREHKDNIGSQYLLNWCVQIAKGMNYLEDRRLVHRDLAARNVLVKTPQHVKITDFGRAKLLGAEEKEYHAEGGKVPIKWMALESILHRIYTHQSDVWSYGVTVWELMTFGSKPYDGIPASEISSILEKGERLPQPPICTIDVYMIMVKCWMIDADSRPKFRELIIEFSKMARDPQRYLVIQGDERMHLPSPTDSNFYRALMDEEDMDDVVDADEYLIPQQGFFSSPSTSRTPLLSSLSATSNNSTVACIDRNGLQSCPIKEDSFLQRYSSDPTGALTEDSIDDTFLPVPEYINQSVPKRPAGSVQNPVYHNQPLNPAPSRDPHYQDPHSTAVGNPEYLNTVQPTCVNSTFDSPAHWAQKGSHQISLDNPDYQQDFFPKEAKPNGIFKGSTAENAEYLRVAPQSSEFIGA
Method: as §1, §2, §3, §4, §5, §6, §7, §8

EGFR^L858R/T790M/C797S = EGFR^L858R/T790M/C797S (Homo sapiens, UniProt P00533, C797S/L858R/T790M); assay: EGFR inhibitory activity assay (TK-substrate-biotin/ATP, 665/615 ratio); assay type: biochemical; conditions: kinase inhibition
Sequence of EGFR^L858R/T790M/C797S (P00533 25-1210 T790M/C797S/L858R): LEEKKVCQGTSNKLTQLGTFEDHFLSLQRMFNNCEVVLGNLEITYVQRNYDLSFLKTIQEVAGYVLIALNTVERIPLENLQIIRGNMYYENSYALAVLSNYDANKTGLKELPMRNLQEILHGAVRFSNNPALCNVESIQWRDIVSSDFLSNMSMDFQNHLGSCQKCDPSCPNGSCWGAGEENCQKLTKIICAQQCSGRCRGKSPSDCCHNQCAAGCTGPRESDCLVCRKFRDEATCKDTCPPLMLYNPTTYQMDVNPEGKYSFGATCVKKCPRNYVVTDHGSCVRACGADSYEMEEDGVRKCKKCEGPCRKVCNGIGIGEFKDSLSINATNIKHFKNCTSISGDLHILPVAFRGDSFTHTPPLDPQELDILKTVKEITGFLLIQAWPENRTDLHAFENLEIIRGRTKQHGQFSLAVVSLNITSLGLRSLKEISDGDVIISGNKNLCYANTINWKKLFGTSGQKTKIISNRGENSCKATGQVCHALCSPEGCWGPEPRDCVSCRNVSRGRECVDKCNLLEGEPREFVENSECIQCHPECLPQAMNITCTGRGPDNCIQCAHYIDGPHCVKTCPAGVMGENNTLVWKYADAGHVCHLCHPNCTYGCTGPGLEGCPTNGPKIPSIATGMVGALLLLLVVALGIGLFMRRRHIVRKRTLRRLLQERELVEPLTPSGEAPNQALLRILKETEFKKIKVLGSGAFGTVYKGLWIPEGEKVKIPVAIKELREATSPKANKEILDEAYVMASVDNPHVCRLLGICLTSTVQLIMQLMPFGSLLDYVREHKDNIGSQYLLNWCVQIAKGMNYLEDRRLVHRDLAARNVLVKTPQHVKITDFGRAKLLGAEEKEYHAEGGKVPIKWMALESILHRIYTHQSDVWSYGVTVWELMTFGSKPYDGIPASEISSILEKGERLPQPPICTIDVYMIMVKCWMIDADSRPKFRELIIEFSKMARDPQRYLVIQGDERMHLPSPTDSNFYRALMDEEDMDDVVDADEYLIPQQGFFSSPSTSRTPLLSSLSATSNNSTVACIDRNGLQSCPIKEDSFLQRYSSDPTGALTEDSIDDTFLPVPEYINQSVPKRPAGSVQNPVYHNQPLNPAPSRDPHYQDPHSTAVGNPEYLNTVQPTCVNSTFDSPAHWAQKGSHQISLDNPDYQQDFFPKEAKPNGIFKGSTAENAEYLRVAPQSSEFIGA
Method: EGFR Inhibitory Activity Assay
(1) A compound stock solution was prepared and diluted 3× to obtain a compound dilution; 10 nL of the compound dilution was transferred to a 384-well plate (784075, Greiner) by Echo 550;
(2) The plate was sealed, and centrifuged at 1,000 g for 1 min;
(4) 5 μl of the 2×EGFR protein working solution was added to the 384-well plate from step (2), centrifuged at 1,000 g for 30 s, and allowed to stand at room temperature (mixed thoroughly) for 10 min;
(6) 5 µL of the TK-substrate-biotin and ATP (the mixture prepared in step (5)) was added to the 384-well plate from step (4) to initiate the reaction;
(7) The mixture was centrifuged at 1,000 g for 30 s; the plate was sealed, and allowed to stand (and reacted) at room temperature for 40 min;
(8) 4×Sa-XL 665 and TK-antibody-Cryptate were prepared with detection buffer;
(9) 5 µL of the Sa-XL 665 and 5 µL of the TK-antibody-Cryptate were added successively to the 384-well plate from step (7);
(10) The mixture was centrifuged at 1,000 g for 30 s, and allowed to stand (reacted) at room temperature for 1 h;
(11) The fluorescence values were read at 615 nm and 665 nm by enzyme labeling instrument (PerkinElmer, 74785).
The ratio (665/615) of each well was calculated.
Formula of inhibition rate (%): […]
Ratiocmpd: Ratio (665/615) value of assay compound.
Ratiopositive: Average ratio (665/615) value of positive control.
Ratiovehicle: Average ratio (665/615) value of negative control.
as §6

Sequence of Ba/F3(EGFR^Del19/T790M/C797S) cells (P00533 with tags, fused parts or gaps DEL746-750/T790M/C797S): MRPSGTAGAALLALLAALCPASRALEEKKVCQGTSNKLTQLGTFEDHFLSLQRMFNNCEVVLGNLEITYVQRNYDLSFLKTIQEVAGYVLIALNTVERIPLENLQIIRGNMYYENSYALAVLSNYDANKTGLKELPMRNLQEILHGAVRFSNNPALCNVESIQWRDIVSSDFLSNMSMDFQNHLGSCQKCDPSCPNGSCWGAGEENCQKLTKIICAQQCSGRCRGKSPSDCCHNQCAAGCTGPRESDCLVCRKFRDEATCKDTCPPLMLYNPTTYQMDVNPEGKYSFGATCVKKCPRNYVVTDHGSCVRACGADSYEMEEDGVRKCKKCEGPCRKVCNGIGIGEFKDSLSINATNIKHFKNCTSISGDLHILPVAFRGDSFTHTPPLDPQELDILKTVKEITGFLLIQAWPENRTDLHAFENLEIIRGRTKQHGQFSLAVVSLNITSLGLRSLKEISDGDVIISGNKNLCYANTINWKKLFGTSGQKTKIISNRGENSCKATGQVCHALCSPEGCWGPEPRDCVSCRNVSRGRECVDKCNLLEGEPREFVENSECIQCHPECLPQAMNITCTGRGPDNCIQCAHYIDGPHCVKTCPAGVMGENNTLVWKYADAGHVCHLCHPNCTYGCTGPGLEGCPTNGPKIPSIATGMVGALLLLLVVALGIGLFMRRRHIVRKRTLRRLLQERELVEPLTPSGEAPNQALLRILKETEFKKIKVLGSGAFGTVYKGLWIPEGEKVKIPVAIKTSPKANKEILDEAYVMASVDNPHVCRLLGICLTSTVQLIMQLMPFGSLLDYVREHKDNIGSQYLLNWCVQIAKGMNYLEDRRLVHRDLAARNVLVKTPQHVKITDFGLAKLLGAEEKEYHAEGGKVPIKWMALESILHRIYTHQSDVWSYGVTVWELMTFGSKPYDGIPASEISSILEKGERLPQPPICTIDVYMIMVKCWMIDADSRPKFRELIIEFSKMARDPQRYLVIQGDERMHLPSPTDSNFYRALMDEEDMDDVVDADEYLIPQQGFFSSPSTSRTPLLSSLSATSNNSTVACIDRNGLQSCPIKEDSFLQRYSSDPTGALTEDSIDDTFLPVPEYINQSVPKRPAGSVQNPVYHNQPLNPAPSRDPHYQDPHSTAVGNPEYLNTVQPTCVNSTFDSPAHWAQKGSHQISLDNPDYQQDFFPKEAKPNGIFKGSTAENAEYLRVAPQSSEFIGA

GI50 [1] [nM]	GI50 [2] [nM]	IC50 (EGFR^L858R/T790M/C797S) [nM]	SMILES
> 300	> 300	–	COc1cc(N2CCC(N3CCNCC3)CC2)ccc1Nc1ncc(Cl)c(Nc2ccccc2P(C)(C)=O)n1 [Compound A1-4, (2-((5-Chloro-2-((2-methoxy-4-(4-(piperazin-1-yl)piperidin-1-yl)phenyl)amino)pyrimidin-4-yl)amino)phenyl)dimethyl phosphorus oxide]
–	–	1 to 100	COc1cc(N2CCC(N3CCN(CC(=O)NCCNc4cccc5c4C(=O)N(C4CCC(=O)NC4=O)C5=O)CC3)CC2)ccc1Nc1ncc(Cl)c(Nc2ccccc2P(C)(C)=O)n1 (stereo not shown) [Compound A6, 2-(4-(1-(4-((5-chloro-4-((2-(dimethylphosphoryl)phenyl)amino)pyrimidin-2-yl)amino)-3-methoxyphenyl)piperidin-4-yl)piperazin-1-yl)-N-(2-((2-(2,6-dioxopiperidin-3-yl)-1,3-dioxoisoindolin-4-yl)amino)ethyl)acetamide]
–	201 to 300	101 to 200	C=Cc1cnc(Nc2ccc(N3CCC(N4CCN(CCCCCCCCCOc5cccc6c5C(=O)N(C5CCC(=O)NC5=O)C6=O)CC4)CC3)cc2OC)nc1Nc1ccccc1P(C)(C)=O (stereo not shown) [Compound C25, 4-((9-(4-(1-(4-((4-((2-(dimethylphosphoryl)phenyl)amino)-5-vinylpyrimidin-2-yl)amino)-3-methoxyphenyl)piperidin-4-yl)piperazin-1-yl)nonyl)oxy)-2-(2,6-dioxopiperidin-3-yl)isoindoline-1,3-dione]
–	> 300	1 to 100	COc1cc(N2CCC(N3CCN(CC(=O)N4CCC(OCC(=O)Nc5cccc6c5CN(C5CCC(=O)NC5=O)C6=O)CC4)CC3)CC2)ccc1Nc1ncc(Cl)c(Nc2ccccc2P(C)(C)=O)n1 (stereo not shown) [Compound C78, 2-((1-(2-(4-(1-(4-((5-chloro-4-((2-(dimethylphosphoryl)phenyl)amino)pyrimidin-2-yl)amino)-3-methoxyphenyl)piperidin-4-yl)piperazin-1-yl)acetyl)piperidin-4-yl)oxy)—N-(2-(2,6-dioxopiperidin-3-yl)-1-oxoisoindolin-4-yl)acetamide]
–	> 300	1 to 100	COc1cc(N2CCC(N3CCN(CC(=O)NC4CCN(CC(=O)Nc5cccc6c5CN(C5CCC(=O)NC5=O)C6=O)CC4)CC3)CC2)ccc1Nc1ncc(Cl)c(Nc2ccccc2P(C)(C)=O)n1 (stereo not shown) [Compound C88, 2-(4-(1-(4-((5-chloro-4-((2-(dimethylphosphoryl)phenyl)amino)pyrimidin-2-yl)amino)-3-methoxyphenyl)piperidin-4-yl)piperazin-1-yl)-N-(1-(2-((2-(2,6-dioxopiperidin-3-yl)-1-oxoisoindolin-4-yl)amino)-2-oxoethyl)piperidin-4-yl)acetamide]
–	–	1 to 100	COc1cc(N2CCC(N3CCN(CC(=O)N[C@H](COc4cccc5c4C(=O)N(C4CCC(=O)NC4=O)C5=O)C(C)(C)C)CC3)CC2)ccc1Nc1ncc(Cl)c(Nc2ccccc2P(C)(C)=O)n1 (stereo partly drawn) [Compound C112, 2-(4-(1-(4-((5-chloro-4-((2-(dimethylphosphoryl)phenyl)amino)pyrimidin-2-yl)amino)-3-methoxyphenyl)piperidin-4-yl)piperazin-1-yl)-N-((2S)-1-((2-(2,6-dioxopiperidin-3-yl)-1,3-dioxoisoindolin-4-yl)oxy)-3,3-dimethylbutan-2-yl)acetamide]
–	> 300	–	COc1cc(N2CCC(N3CCN(CCCCCCCOC4CN(c5cccc6c5C(=O)N(C5CCC(=O)NC5=O)C6=O)C4)CC3)CC2)ccc1Nc1ncc(Cl)c(Nc2ccccc2P(C)(C)=O)n1 (stereo not shown) [Compound C150, 4-(3-((7-(4-(1-(4-((5-chloro-4-((2-(dimethylphosphoryl)phenyl)amino)pyrimidin-2-yl)amino)-3-methoxyphenyl)piperidin-4-yl)piperazin-1-yl)heptyl)oxy)azetidin-1-yl)-2-(2,6-dioxopiperidin-3-yl)isoindoline-1,3-dione]
> 300	> 300	–	COc1cc(N2CCC(N3CCN(CCCCCn4cc(-c5cccc6c5CN(C5CCC(=O)NC5=O)C6=O)cn4)CC3)CC2)ccc1Nc1ncc(Cl)c(Nc2ccccc2P(C)(C)=O)n1 (stereo not shown) [Compound C162, 3-(4-(1-(5-(4-(1-(4-((5-chloro-4-((2-(dimethylphosphoryl)phenyl)amino)pyrimidin-2-yl)amino)-3-methoxyphenyl)piperidin-4-yl)piperazin-1-yl)pentyl)-1H-pyrazol-4-yl)-1-oxoisoindolin-2-yl)piperidine-2,6-dione]
1 to 100	101 to 200	–	COc1cc(N2CCC(N3CCN(CCCCCC#Cc4c(F)ccc5c4CN(C4CCC(=O)NC4=O)C5=O)CC3)CC2)ccc1Nc1ncc(Cl)c(Nc2ccccc2P(C)(C)=O)n1 (stereo not shown) [Compound C166, 3-(4-(7-(4-(1-(4-((5-chloro-4-((2-(dimethylphosphoryl)phenyl)amino)pyrimidin-2-yl)amino)-3-methoxyphenyl)piperidin-4-yl)piperazin-1-yl)hept-1-yn-1-yl)-5-fluoro-1-oxoisoindolin-2-yl)piperidine-2,6-dione]
1 to 100	1 to 100	–	COc1cc(N2CCC3(CCN(CCOCC#Cc4cccc5c4CN(C4CCC(=O)NC4=O)C5=O)CC3)CC2)c(C)cc1Nc1ncc(Br)c(Nc2ccc3nccnc3c2P(C)(C)=O)n1 (stereo not shown) [Compound C174, 3-(4-(3-(2-(9-(4-((5-bromo-4-((5-(dimethylphosphoryl)quinoxalin-6-yl)amino)pyrimidin-2-yl)amino)-5-methoxy-2-methylphenyl)-3,9-diazaspiro[5.5]undecan-3-yl)ethoxy)prop-1-yn-1-yl)-1-oxoisoindolin-2-yl)piperidine-2,6-dione]
1 to 100	1 to 100	–	COc1cc(N2CCC(N3CCN(CCCc4ccc(-c5ccc6c(c5)CN(C5CCC(=O)NC5=O)C6=O)cc4)CC3)CC2)ccc1Nc1ncc(Cl)c(Nc2ccccc2P(C)(C)=O)n1 (stereo not shown) [Compound C235, 3-(5-(4-(3-(4-(1-(4-((5-chloro-4-((2-(dimethylphosphoryl)phenyl)amino)pyrimidin-2-yl)amino)-3-methoxyphenyl)piperidin-4-yl)piperazin-1-yl)propyl)phenyl)-1-oxoisoindolin-2-yl)piperidine-2,6-dione]
1 to 100	1 to 100	–	COc1cc(N2CCC(N3CCN(CCCCC#Cc4ccc(F)c5c4CN(C4CCC(=O)NC4=O)C5=O)CC3)CC2)ccc1Nc1ncc(Cl)c(Nc2ccccc2P(C)(C)=O)n1 (stereo not shown) [Compound C244, 3-(4-(6-(4-(1-(4-((5-chloro-4-((2-(dimethylphosphoryl)phenyl)amino)pyrimidin-2-yl)amino)-3-methoxyphenyl)piperidin-4-yl)piperazin-1-yl)hex-1-yn-1-yl)-7-fluoro-1-oxoisoindolin-2-yl)piperidine-2,6-dione]
1 to 100	1 to 100	–	COc1cc(N2CCC(N3CCN(CCCCCOc4cccc5c4CN(C4CCC(=O)NC4=O)C5=O)CC3)CC2)c(C)cc1Nc1ncc(Br)c(Nc2ccc3nccnc3c2P(C)(C)=O)n1 (stereo not shown) [Compound C246, 3-(4-((5-(4-(1-(4-((5-bromo-4-((5-(dimethylphosphoryl)quinoxalin-6-yl)amino)pyrimidin-2-yl)amino)-5-methoxy-2-methylphenyl)piperidin-4-yl)piperazin-1-yl)pentyl)oxy)-1-oxoisoindolin-2-yl)piperidine-2,6-dione]
1 to 100	1 to 100	–	COc1cc(N2CCC3(CCN(CCCCCCc4cccc5c4CN(C4CCC(=O)NC4=O)C5=O)CC3)CC2)c(C)cc1Nc1ncc(Br)c(Nc2ccc3nccnc3c2P(C)(C)=O)n1 (stereo not shown) [Compound C299, 3-(4-(6-(9-(4-((5-bromo-4-((5-(dimethylphosphoryl)quinoxalin-6-yl)amino)pyrimidin-2-yl)amino)-5-methoxy-2-methylphenyl)-3,9-diazaspiro[5.5]undecan-3-yl)hexyl)-1-oxoisoindolin-2-yl)piperidine-2,6-dione]
